Common to all, as to assay: NCI tumour cell line growth inhibition, 48 h
Assay [1] relates to SNB-78 CNS.
In assay [2] the test system is DLD-1 colon.
Assay [3] has as its system DMS 114 small cell lung.
The test system of assay [4] is LXFL 529 NSCLC.
Assay [5] deals with XF 498 CNS.
Assay [6] has as its system RXF-631 renal.
Assay [7] relates to MDA-N.

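How tested: cells in 96-well plates exposed to compound for 48 hours at five concentrations. At the GI50, growth is halved. Definition used: TGI = concentration required for complete inhibition of growth.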 Where a SMILES comes first, the peptide text is derived from it. [ ]: non-standard residue; d: D form.

Turning to `Cc1nc(-n2nc(-c3ccccc3)cc2-c2ccccc2)sc1C(=O)/C=C/c1cccc([N+](=O)[O-])c1`, the TGI in assay [1] was more than 100 µM; in assay [2], 24.3 µM; in assay [3], 34.3 µM.

Consider `CCOC(=O)C(=O)Nc1nc2ccc(C)cc2s1`, for which the TGI in assay [4], in assay [1], in assay [5], in assay [2], in assay [6] and in assay [3] was more than 100 µM in each case.

With `Cc1ccc([N+]2=NC(c3ccccc3)=NN(c3ccccc3)C2)cc1`, the TGI in assay [4], in assay [5], in assay [2] and in assay [3] was more than 100 µM each time.

With `CN1C/C(=C\c2ccc(C(=O)O)cc2)C(=O)/C(=C/c2ccc(C(=O)O)cc2)C1`, the TGI in assay [4], in assay [1], in assay [5], in assay [2], in assay [6] and in assay [3] was more than 100 µM throughout.

For the compound `CN(C)Cc1cc(C(C)(C)C)cc(CN(C)C)c1O`, the TGI in assay [7] was more than 100 µM.

Regarding `O=C(CCc1cc(-c2ccc(F)cc2)n[nH]1)N(Cc1ccccc1)Cc1ccccc1`, the TGI in assay [4], in assay [1], in assay [5] and in assay [3] was more than 100 µM each time.

As to `C/C(=N\Nc1n[nH]c(=S)n1N)c1c(O)cc(C)oc1=O`, the TGI in assay [4], in assay [1] and in assay [2] was more than 100 µM in each case.

On to `O/N=C1\C(=C\c2ccc3c(c2)OCCO3)CCCC1C(NO)c1ccc2c(c1)OCCO2` (stereo not drawn), for which the TGI was 62.7 µM in assay [4]; more than 100 µM in assay [1]; more than 100 µM in assay [2]; more than 100 µM in assay [6]; 44.6 µM in assay [3].

Turning to `COC(=O)C#CC(N)=O`, the TGI in assay [4], in assay [1], in assay [2], in assay [6] and in assay [3] was more than 100 µM each time.

In assay [7], `C=C1C(=O)OC2(C)CCC1CC1OC1(C)CCC=C(C)CCC2O` (stereo not drawn) came in with a TGI of 97.4 µM.

For the compound `O=C(N/C(=C\c1ccc(F)cc1)c1nc2ccccc2[nH]1)c1ccccc1`, the TGI in assay [4], in assay [1], in assay [5], in assay [2], in assay [6] and in assay [3] was more than 100 µM in each case.

As to `COC(=O)C(=O)C(C#N)c1c(Cl)cccc1Cl` (stereo not drawn), the TGI in assay [4], in assay [1], in assay [5], in assay [2], in assay [6] and in assay [3] was more than 100 µM in each case.

Take `CC1(C2CCC3(C)C(C2)C3Sc2ccccc2)OCCO1` (stereo not drawn): the TGI in assay [4] is more than 100 µM; in assay [1] it was more than 100 µM; in assay [5] it was 40.7 µM; in assay [2], 92.2 µM; in assay [3], 47.1 µM.

`O=C1CC2OCC=C3CN4CCC5(C(=O)O)C(N1)C2C3CC45` (stereo not drawn) showed a TGI in assay [7] of more than 100 µM.

Compound `COC(=N)CCCl` yielded a TGI in assay [7] of more than 100 µM.

Consider `COc1cc([C@@H]2c3cc4c(cc3[C@@H](NCc3cccc(F)c3)C3COC(=O)[C@@H]32)OCO4)cc(OC)c1O` (stereo partly drawn), for which the TGI in assay [4] was more than 65 µM; in assay [1], 57.7 µM; in assay [2] it was more than 65 µM; in assay [3] it was 31.6 µM.

In turn, `Cc1c(C2CCSc3ccccc3N2)sc2ccccc12` (stereo not drawn) returned a TGI in assay [7] of more than 100 µM.

As for `N/C(CC(=O)NOC(=O)c1ccccc1)=N/OC(=O)c1ccccc1`, the TGI in assay [7] is more than 100 µM.

Regarding `NC(=O)c1nc(-c2ccc(Cl)c(Cl)c2)nc2ccccc12`, the TGI in assay [4], in assay [1], in assay [5], in assay [2] and in assay [3] was more than 100 µM throughout.

In the case of `C[C@H]1CCC2C(OC(=O)[C@@H]2CN(C)C)[C@]2(C)C(=O)C=CC12O` (stereo partly drawn), the TGI was 12.4 µM in assay [4]; 13.3 µM in assay [7]; 11 µM in assay [2]; 3.11 µM in assay [6]; 11.6 µM in assay [3].

Turning to `NC1=Nc2ccccc2Sc2ccccc21`, the TGI in assay [1], in assay [5], in assay [2] and in assay [3] was more than 100 µM each time.

For `CCN1CCC(O)(/C=C/c2ccccc2)C(C(=O)/C=C/c2ccccc2)C1` (stereo not drawn), the TGI turned out to be 3.56 µM in assay [4]; 11.5 µM in assay [1]; 18.5 µM in assay [5]; 8.22 µM in assay [2]; 15 µM in assay [6]; 5.6 µM in assay [3].

On to `COc1cc(CCc2ccncc2)cc(OC)c1OC`, for which the TGI in assay [4], in assay [1], in assay [5], in assay [2], in assay [6] and in assay [3] was more than 100 µM each time.

On to `CC1OC(=O)N2CCC=CC12` (stereo not drawn), for which the TGI in assay [4], in assay [1], in assay [5], in assay [2], in assay [6] and in assay [3] was more than 100 µM each time.

For `CC1=CC(=O)N2C(OC[C@@H]2c2ccccc2)O1` (stereo partly drawn), the TGI in assay [4], in assay [5] and in assay [2] was more than 100 µM throughout.

The compound `C[C@H]1CC[C@@H]2[C@@H](C)[C@H]3[C@H](C[C@H]4[C@@H]5CC=C6C[C@@H](O)CC[C@]6(C)[C@H]5CC[C@]34C)N2C1` came in with a TGI in assay [7] of more than 100 µM.

Take `Cc1c(Cl)cccc1NC(=O)C(=O)c1c(O)c2ccc(O)cc2oc1=O`: the TGI in assay [4], in assay [1], in assay [5], in assay [2] and in assay [3] was more than 100 µM each time.

As to `CC(CC(=O)Nc1ccc(NC(=O)CC(C)N=NC(N)=O)cc1)N=NC(N)=O` (stereo not drawn), the TGI is more than 100 µM in assay [4], more than 100 µM in assay [5], more than 100 µM in assay [2] and 38.2 µM in assay [3].

On to `Oc1ccc(O)c(-n2cccn2)c1-n1cccn1`, for which the TGI in assay [4], in assay [1], in assay [5], in assay [2] and in assay [3] was more than 100 µM in each case.

With `CC(C)OP(=O)(OC(C)C)/C(C#N)=C/c1c[nH]c2ccccc12`, the TGI in assay [7] is more than 100 µM.

With `C#C[C@@H](CCCC)OC(=O)N[C@H](C)c1ccccc1`, the TGI in assay [4], in assay [1], in assay [5], in assay [2], in assay [6] and in assay [3] was more than 100 µM each time.

With `CN(C)C(=S)/N=c1\ss/c(=N\S(=O)(=O)c2ccccc2)n1C`, the TGI in assay [4], in assay [1], in assay [5], in assay [2] and in assay [3] was more than 100 µM throughout.

In assay [7], `CSCC[C@H](NC(=O)[C@@H](N)CC(N)=O)C(=O)N[C@@H](Cc1c[nH]c2ccccc12)C(=O)N[C@@H](CCC(N)=O)C(=O)N[C@@H](CCC(=O)O)C(=O)N[C@H](C(=O)NCC(=O)N[C@@H](CCCCN)C(=O)N[C@H](C)C(=O)O)C(C)C` (H-NMWQEVGK[dA]-OH) displayed a TGI of more than 100 µM.

Regarding `CCCCCC/C(CC(=O)CCC(=O)NCCc1ccccc1)=N\Nc1ccc([N+](=O)[O-])cc1[N+](=O)[O-]`, the TGI in assay [4] was more than 100 µM; in assay [1], more than 100 µM; in assay [2], more than 100 µM; in assay [6] it was more than 100 µM; in assay [3] it was 56.4 µM.

Turning to `COc1ccc(/C=C2/CSC/C(=C/c3ccc(OC)c(OC)c3)C2=O)cc1OC`, the TGI in assay [4] is 10.8 µM; in assay [1], more than 100 µM; in assay [5], 25.8 µM; in assay [7], 8.89 µM; in assay [6], 6.41 µM.

Take `Cc1ccc(C)c(NC(=O)C(=O)Nn2c(=S)[nH]c3ccccc3c2=O)c1`: the TGI in assay [4], in assay [1], in assay [2], in assay [6] and in assay [3] was more than 100 µM throughout.

`C1CC[N-]CC1.CC(=N\O)/C(C)=N/O.CC(=N\O)/C(C)=N/O.C[CH-]C(C)O.[Co+2]`: in assay [7], the GI50 is 26.6 µM and the TGI was found to be 77 µM.

For `O=[N+]([O-])c1ccc2nc(-c3ccc(Cl)cc3)[nH]c2c1`, the TGI in assay [7] amounted to 51.1 µM.

In the case of `CC/C(C)=C1\CCC(CN(C)C)C1=O` (stereo not drawn), the TGI in assay [4] turned out to be 29.9 µM; in assay [1] it was 54.8 µM; in assay [5], 34.7 µM; in assay [2] it was 30.5 µM; in assay [6] it was 34.4 µM; in assay [3] it was 41.8 µM.

As to `CC1/C(=N/O)CC(c2ccccc2)N(N=O)C1c1ccccc1` (stereo not drawn), in assay [7], the TGI was more than 100 µM.

With `Cc1nc(-n2nc(-c3ccccc3)cc2-c2ccccc2)sc1C(=O)CC(=O)C(=O)Nc1ccc(O)cc1`, the TGI in assay [4], in assay [1], in assay [2], in assay [6] and in assay [3] was more than 100 µM in each case.

`O=C1/C(=C/c2ccc(O)cc2)Oc2ccccc21`: in assay [7], the TGI was more than 100 µM.

For `CCCC(=O)OC(OC(=O)CCC)c1ccc([N+](=O)[O-])o1`, in assay [7], the TGI amounted to 46.3 µM.

For the compound `CCCCOP1(=O)CC(C)=C(Cl)C(C)(OC)C1` (stereo not drawn), the TGI in assay [4], in assay [1], in assay [5] and in assay [2] was more than 100 µM in each case.

`COC(=O)Nc1nc2ccc(C(=O)c3cccs3)cc2[nH]1`: the TGI in assay [4] was 18.6 µM; in assay [1], more than 63.1 µM; in assay [5], 0.0934 µM; in assay [7], 2.57 µM; in assay [2], more than 100 µM; in assay [6], more than 61.8 µM. For the same compound, the TGI in assay [3] is more than 100 µM.

In the case of `NC1=C(O)C(=O)C(c2c[nH]c3ccc(OCc4ccccc4)cc23)O1` (stereo not drawn), the TGI in assay [7] was more than 100 µM.

Take `N#CNC1=NCCC(=O)N1CCc1c[nH]c2ccccc12`: the TGI in assay [4], in assay [1], in assay [5], in assay [2] and in assay [3] was more than 100 µM each time.

`CCN(CC)CCNc1ccc([N+](=O)[O-])c2nc3ccc(OC)cc3c(N)c12` showed a TGI in assay [7] of 3.26 µM.

On to `COC1CC(n2cc(F)c(N)nc2=O)OC1CO` (stereo not drawn), for which the TGI in assay [4], in assay [1], in assay [5], in assay [2], in assay [6] and in assay [3] was more than 100 µM in each case.

Consider `Nc1ccn(C2CC3OCC3O2)c(=O)n1` (stereo not drawn), for which the TGI in assay [7] is more than 100 µM.

For `O=C1C(=Cc2ccc(F)cc2)C(=O)c2ccccc21`, the TGI in assay [4], in assay [5], in assay [2], in assay [6] and in assay [3] was more than 100 µM in each case.

Take `N#CC(C#N)C(c1ccccc1)c1ccccc1`: the TGI in assay [4], in assay [1], in assay [2], in assay [6] and in assay [3] was more than 100 µM throughout.

These data come from PubChem BioAssay (NCI).
